In series [1] the target is T1, Transient receptor potential cation channel subfamily V member 1 (Homo sapiens, UniProt Q8NER1). Briefly: Antagonist activity at recombinant human TRPV1 expressed in CHOK1 cells assessed as reduction in capsaicin-induced Ca2+ flux after 15 mins by fluo-4-based FLIPR assay. It is filed as cell-based. Conditions: for pKi: read-out: Ki. A general note: Calcium flux is commonly read through the fluorescence of an indicator in the cells; call rule not given here.

Series [2] concerns the target T1, Transient receptor potential cation channel subfamily V member 1. As to the kind of experiment: Antagonist activity at recombinant human TRPV1 expressed in CHOK1 cells assessed as reduction in low pH-induced Ca2+ flux after 15 mins by fluo-4-based FLIPR assay. The class given is cell-based.
In series [3] the test system is Rattus norvegicus. Briefly: In vivo antagonist activity at TRPV1 in rat assessed as reduction in capsaicin-induced hypothermia at 3 mg/kg, po relative to control. It is filed as functional.
Series [4] relates to Mus musculus. Briefly: Toxicity in formalin-induced pain mouse model assessed as hyperthermia at 10 mg/kg, po. The class given is organism-based. Conditions: in vivo.
Series [5] deals with Rattus norvegicus. Briefly: In vivo antagonist activity at TRPV1 in rat assessed as reduction in capsaicin-induced hypothermia at 10 mg/kg, po relative to control. The class given is functional.
The subject of series [6] is Mus musculus. Briefly: Analgesic activity in formalin-induced pain mouse model assessed reduction in pain response at 3 mg/kg, iv measured at 20 to 30 mins post administration by formalin test relative to control. It is filed as functional.
In series [7] the target is Transient receptor potential cation channel subfamily V member 1 (Rattus norvegicus, UniProt O35433). As to the kind of experiment: Antagonist activity at recombinant rat TRPV1 expressed in HEK293 cells assessed as reduction in capsaicin-induced Ca2+ flux preincubated for 3 mins followed by capsaicin addition measured by calcium 4-dye based FLIPR assay. The class given is cell-based.
Transient receptor potential cation channel subfamily V member 1 (Rattus norvegicus, UniProt O35433), sequence (O35433 whole entry): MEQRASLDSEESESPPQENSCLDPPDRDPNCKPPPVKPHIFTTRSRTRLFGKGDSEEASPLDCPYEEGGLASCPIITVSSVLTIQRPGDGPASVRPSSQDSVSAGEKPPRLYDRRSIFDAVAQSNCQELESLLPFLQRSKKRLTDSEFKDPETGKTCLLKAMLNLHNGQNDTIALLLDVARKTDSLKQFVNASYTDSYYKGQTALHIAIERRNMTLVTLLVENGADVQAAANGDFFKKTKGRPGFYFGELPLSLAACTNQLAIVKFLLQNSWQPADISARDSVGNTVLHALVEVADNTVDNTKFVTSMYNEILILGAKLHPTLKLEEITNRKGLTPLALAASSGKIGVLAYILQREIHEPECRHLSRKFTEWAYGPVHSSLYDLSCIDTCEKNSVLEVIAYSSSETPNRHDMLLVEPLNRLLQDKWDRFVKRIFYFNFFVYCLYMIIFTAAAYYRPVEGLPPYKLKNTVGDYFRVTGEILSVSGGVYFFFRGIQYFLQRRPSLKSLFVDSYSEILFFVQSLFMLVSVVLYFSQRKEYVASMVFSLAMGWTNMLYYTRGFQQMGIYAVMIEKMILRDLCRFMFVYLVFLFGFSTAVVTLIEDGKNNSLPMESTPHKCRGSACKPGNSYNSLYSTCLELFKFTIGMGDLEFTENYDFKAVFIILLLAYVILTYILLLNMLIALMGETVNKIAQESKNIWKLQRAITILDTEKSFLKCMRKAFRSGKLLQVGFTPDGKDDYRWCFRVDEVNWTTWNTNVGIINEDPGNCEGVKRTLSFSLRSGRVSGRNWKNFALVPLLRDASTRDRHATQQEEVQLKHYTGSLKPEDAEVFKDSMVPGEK

Series [8] has as its target T1, Transient receptor potential cation channel subfamily V member 1. Briefly: Antagonist activity at recombinant human TRPV1 expressed in CHOK1 cells assessed as reduction in temperature-induced Ca2+ flux after 15 mins at 45 degC by fluo-4-based FLIPR assay. The class given is cell-based.

Usually pKi stands for the Ki on a negative log10 scale, so that one unit is a factor of ten. As usually defined, the pIC50 is the negative decadic logarithm of the IC50, by convention in mol/L. In general, inhibition in vivo refers to how much of the control response was suppressed.

Structures are written as SMILES. pIC50, pKi: −log10 of the molar value.

T1 sequence (Q8NER1 whole entry): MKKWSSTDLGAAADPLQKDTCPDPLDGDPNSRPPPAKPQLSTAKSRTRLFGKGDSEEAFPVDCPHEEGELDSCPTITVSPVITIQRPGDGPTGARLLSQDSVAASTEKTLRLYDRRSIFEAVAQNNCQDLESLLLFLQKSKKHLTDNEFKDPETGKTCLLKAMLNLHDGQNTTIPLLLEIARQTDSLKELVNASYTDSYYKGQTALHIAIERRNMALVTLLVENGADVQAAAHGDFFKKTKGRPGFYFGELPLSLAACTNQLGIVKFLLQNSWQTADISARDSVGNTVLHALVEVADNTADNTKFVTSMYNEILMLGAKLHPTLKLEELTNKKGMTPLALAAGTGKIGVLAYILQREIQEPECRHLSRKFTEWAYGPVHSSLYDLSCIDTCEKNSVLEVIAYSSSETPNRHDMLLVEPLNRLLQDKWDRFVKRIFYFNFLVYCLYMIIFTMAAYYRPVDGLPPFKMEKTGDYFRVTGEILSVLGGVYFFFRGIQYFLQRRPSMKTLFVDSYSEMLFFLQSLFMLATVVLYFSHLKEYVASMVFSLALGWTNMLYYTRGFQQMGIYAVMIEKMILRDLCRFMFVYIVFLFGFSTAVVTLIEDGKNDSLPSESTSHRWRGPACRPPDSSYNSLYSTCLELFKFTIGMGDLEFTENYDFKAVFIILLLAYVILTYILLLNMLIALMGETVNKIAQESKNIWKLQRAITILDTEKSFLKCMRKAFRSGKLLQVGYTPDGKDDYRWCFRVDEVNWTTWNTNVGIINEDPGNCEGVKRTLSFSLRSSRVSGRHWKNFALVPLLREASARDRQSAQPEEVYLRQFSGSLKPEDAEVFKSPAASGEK

Turning to `COc1cc(C(C)C(=O)NCc2ccc(C(F)(F)F)nc2N2CCC(C)CC2)ccc1NS(C)(=O)=O` (stereo not drawn), the pKi in series [1] was 9.10.

`C=CC(=O)N(c1ccc(C(C)C(=O)NCc2ccc(C(F)(F)F)nc2N2CCC(C)CC2)cc1F)S(C)(=O)=O` (stereo not drawn): the pKi in series [1] was 8.62.

`CC1CCN(c2nc(C(F)(F)F)ccc2CNC(=O)C(C)c2ccc(NS(C)(=O)=O)c(Cl)c2)CC1` (stereo not drawn): the pKi in series [1] is 8.64.

In the case of `CC1CCN(c2nc(C(F)(F)F)ccc2CNC(=O)C(C)c2ccc(N(CC#N)S(C)(=O)=O)c(F)c2)CC1` (stereo not drawn), the Ki entry in series [1] is on record as “Not Active”.

For `CC1CCN(c2nc(C(F)(F)F)ccc2CNC(=O)C(C)c2ccc(NS(C)(=O)=O)c(Br)c2)CC1` (stereo not drawn), in series [1], the negative-log Ki (pKi) was 8.49.

`COc1cc(C(C)C(=O)NCc2ccc(C(F)(F)F)nc2N2CCC(C)CC2)cc(OC)c1NS(C)(=O)=O` (stereo not drawn): the pKi in series [1] was 8.80.

In the case of `CC1CCN(c2nc(C(F)(F)F)ccc2CNC(=O)C(C)c2cc(F)c(NS(C)(=O)=O)c(Br)c2)CC1` (stereo not drawn), in series [1], the pKi is 9.15.

As for `CC1CCN(c2nc(C(F)(F)F)ccc2CNC(=O)C(C)c2ccc(NS(N)(=O)=O)c(F)c2)CC1` (stereo not drawn), the pKi in series [1] was 8.57.

Regarding `COc1cc(C(C)C(=O)NCc2ccc(C(F)(F)F)nc2N2CCC(C)CC2)cc(F)c1NS(C)(=O)=O` (stereo not drawn), in series [1], the pKi is 9.52.

Consider `CC1CCN(c2nc(C(F)(F)F)ccc2CNC(=O)C(C)c2ccc(NS(=O)(=O)C(F)(F)F)c(F)c2)CC1` (stereo not drawn), for which, in series [1], the Ki entry is given as “Not Active”.

As to `CC1CCN(c2nc(C(F)(F)F)ccc2CNC(=O)C(C)c2cc(F)c(NS(C)(=O)=O)c(F)c2)CC1` (stereo not drawn), the pIC50 in series [2] was 8.06; in series [8], 8.09. Besides, the values for the inhibition in vivo at 3 mg/kg with Rattus norvegicus [3] and with Mus musculus [6] were 57% and 43%, respectively. Also, the Activity entry in the series with Mus musculus [4] is on record as “Toxic”. For the same molecule, the inhibition in vivo at 10 mg/kg in the series on Rattus norvegicus [5] stood at 100%. Further, the pKi was 9.70 in series [1] and 10.00 in series [7].

The values above are taken from ChEMBL document CHEMBL4118257, “Discovery of 2-(3,5-difluoro-4-methylsulfonaminophenyl)propanamides as potent TRPV1 antagonists” (Bioorg Med Chem Lett, 2018).
